Results taken from patent publication US5482858A, “Polypeptide linkers for production of biosynthetic proteins” (priority 1993, dated 1996).

Columns and labels:
[1] = test system: 26-10 BABS (sFv), single chain biosynthetic antibody binding site VH-(Gly4-Ser)3-VL mimicking murine anti-digoxin monoclonal 26-10; test: Specificity determination by radioimmunoassay (inhibition of 125I-digoxin binding), 26-10 BABS
Description: After the plates were washed and blocked with 1% horse serum in PBSA, solutions (50 μl) containing 26-10 Fab or the BABS in either PBSA or 0.01M sodium acetate at pH 5.5 were added to the wells and incubated 2-3 hrs at room temperature.

[2] = target: 26-10 BABS, single chain biosynthetic antibody binding site VH-(Gly4-Ser)3-VL mimicking murine anti-digoxin monoclonal 26-10; test: Affinity determination by equilibrium binding of 3H-digoxin (immunoprecipitation), 26-10 BABS
Description: (§1) Association constants were measured by equilibrium binding studies. […] After 2-3 hrs of incubation at room temperature, the protein was precipitated by the addition of 100 μl goat antiserum to murine Fab fragment (ICN Immuno-Biologicals), 50 μl of the IgG fraction of rabbit anti-goat IgG (ICN ImmunoBiologicals), and 50 μl of a 10% suspension of protein A-Sepharose (Sigma). Following 2 hrs at 4° C., bound and free antigen were separated by vacuum filtration on glass fiber filters (Vacuum Filtration Manifold, Millipore, Bedford, Mass.). Filter disks were then counted in 5 ml of […] scintillation fluid with a Model 1500 Tri-Carb Liquid Scintillation Analyzer (Packard, Sterling, Va.). The Scatchard analyses of the untransformed radioligand binding data using LIGAND, a non-linear curve fitting program based on mass action. Ko s were also calculated by Sips plots and binding isotherms shown in FIG. 13A for the BABS and 13B for the Fab. […] These binding data are also plotted in linear form as Sips plots (inset), having the same abscissa as the binding isotherm but with the ordinate representing log r/(n-r), defined below.

[3] = target: IgG2a,k monoclonal antibody 26-10 (parent anti-digoxin antibody); conditions: cited from earlier work
[4] = target: anti-digoxin 26-10 Fab (murine monoclonal 26-10); test: Affinity determination by equilibrium binding of 3H-digoxin (immunoprecipitation), 26-10 Fab
Description: as §1

[5] = normalizing glycoside Digoxigenin

SMILES	normalized concentration of inhibitor giving 50% inhibition of 125I-digoxin binding [1, 5]	normalized concentration of inhibitor giving 50% inhibition of 125I-digoxin binding ([1]; normalizing glycoside Digoxin)	other results
CC(=O)OC1CCC2(C=O)C3CCC4(C)C(C5=CC(=O)OC5)CCC4(O)C3CCC2(O)C1 (stereo not shown) [Acetyl Strophanthidin]	0.8	5.9	
C[C@]12CC[C@H](O)C[C@H]1CC[C@@H]1[C@@H]2CC[C@]2(C)[C@@H](C3=CC(=O)OC3)CC[C@]12O [Digitoxigenin]	0.4	2.6	
C[C@H]1O[C@@H](O[C@H]2[C@@H](O)C[C@H](O[C@H]3[C@@H](O)C[C@H](O[C@H]4CC[C@@]5(C)[C@H](CC[C@@H]6[C@@H]5CC[C@]5(C)[C@@H](C7=CC(=O)OC7)CC[C@]65O)C4)O[C@@H]3C)O[C@@H]2C)C[C@H](O)[C@@H]1O [Digitoxin]	0.3	2.0	
C[C@]12CC[C@H](O)C[C@H]1CC[C@@H]1[C@@H]2C[C@@H](O)[C@]2(C)[C@@H](C3=CC(=O)OC3)CC[C@]12O [Digoxigenin]	1.0	7.3	
C[C@H]1O[C@@H](O[C@H]2[C@@H](O)C[C@H](O[C@H]3[C@@H](O)C[C@H](O[C@H]4CC[C@@]5(C)[C@H](CC[C@@H]6[C@@H]5C[C@@H](O)[C@]5(C)[C@@H](C7=CC(=O)OC7)CC[C@]65O)C4)O[C@@H]3C)O[C@@H]2C)C[C@H](O)[C@@H]1O [Digoxin]			Association Constant, Ko (BABS) ([2]; Binding isotherm): 5.2e+07 M⁻¹; Association Constant, Ko (BABS) ([2]; Scatchard plot): (3.2 ± 0.9) × 10^7 M^-1; Association Constant, Ko (BABS) ([2]; Sips plot): 2.6e+07 M⁻¹; Kd [3]: 0.185 nM; Association Constant, Ko (Fab) ([4]; Binding isotherm): 3.3e+08 M⁻¹; Association Constant, Ko (Fab) ([4]; Scatchard plot): (1.9 ± 0.2) × 10^8 M^-1; Association Constant, Ko (Fab) ([4]; Sips plot): 1.8e+08 M⁻¹
C[C@H]1O[C@@H](O[C@H]2[C@@H](O)C[C@H](O[C@H]3[C@@H](O)C[C@H](O[C@H]4CC[C@@]5(C)[C@H](CC[C@@H]6[C@@H]5CC[C@]5(C)[C@@H](C7=CC(=O)OC7)[C@@H](O)C[C@]65O)C4)O[C@@H]3C)O[C@@H]2C)C[C@H](O)[C@@H]1O [Gitoxin]	8.5	62	
C[C@@H]1O[C@@H](O[C@H]2C[C@@H](O)[C@]3(CO)[C@H]4[C@H](O)C[C@]5(C)[C@@H](C6=CC(=O)OC6)CC[C@]5(O)[C@@H]4CC[C@]3(O)C2)[C@H](O)[C@H](O)[C@H]1O [Ouabain]	21	150	
